These results are taken from US11578140B2, “Immunoassay for mitragynine” (MICROGENICS CORPORATION, priority 2019, dated 2023).

This experiment relates to anti-mitragynine antibody. The experiment is described as follows: Cross reactivity of the anti-mitragynine antibody against kratom alkaloids and mitragynine metabolites. Type of experiment: binding, Balb/c mice. The settings on record: for Cross Reactivity (%): tested concentration (ng/mL): Mitragynine 50, 7-hydroxy mitragynine 35,000-40,000, Paynantheine 25,000-35,000, Speciociliatine 25,000-35,000, 16-carboxy mitragynine 300-360, 9-Hydroxycorynantheidine 3,125-4,000; for cross reactivity (in words): metabolites of mitragynine, antibody derived from the BSA immunogen. The protocol: In a particular embodiment of the invention, the BSA-containing immunogen of Example 4 (Compound 6) was administered to Balb/c mice in a series of injections as is routine in the art. Alternatively, other mammals are suitable for antibody production. Screening of anti-serum samples taken from the immunized mice was performed to assess antibody titer and to evaluate the ability of antibodies in the samples to bind to enzyme-donor conjugate described in Example 6.
In particular, β-galactosidase enzyme donor polypeptide fragment combines with a β-galactosidase enzyme acceptor fragment to form active β-galactosidase enzyme. The active enzyme complex is capable of transforming a substrate into a product that is differentially detectable. Usually, the product is a different color from the substrate and is quantified using spectrophotometric methods. […] Therefore, the enzyme-catalyzed reaction rate is directly proportional to the concentration of target analyte present in the specimen tested. A preferred β-galactosidase enzyme donor is ED28, a polypeptide containing residues 6-45 of β-galactosidase, with cysteines at positions 1 and 46 (relative to the numbering of the original β-galactosidase fragment).
The cross reactivity of the anti-mitragynine antibody derived from the immunogen described above was tested against certain kratom alkaloids and metabolites of mitragynine shown below.

A value given as a limit tells only on which side of the number the result lay.

Consider `CC[C@@H]1CN2CC[C@@]3(O)C(=Nc4cccc(OC)c43)[C@@H]2C[C@@H]1/C(=C\OC)C(=O)OC` [7-hydroxy mitragynine], for which the “Cross Reactivity (%)” value was at most 0.2%.

On to `CC[C@@H]1CN2CCc3c([nH]c4cccc(O)c34)[C@@H]2C[C@@H]1/C(=C\OC)C(=O)OC` [9-Hydroxycorynantheidine, (E)-2-[(25,35,12b5)-3-ethyl-8-hydroxy-1,2,3,4,6,7,12,12b-octahydroindolo [2,3-a]quinozilizin-2-yl]-3-methoxy propenoic acid methyl ester], for which the “cross reactivity (in words)” value is reported as “low levels of cross reactivity” and the “Cross Reactivity (%)” value is 1.25-1.6%.

For `CC[C@@H]1CN2CCc3c([nH]c4cccc(OC)c34)[C@@H]2C[C@@H]1/C(=C\OC)C(=O)O` [16-carboxy mitragynine], the “cross reactivity (in words)” value is given as “low levels of cross reactivity” and the “Cross Reactivity (%)” value was 13.9-16.7%.

On to `CC[C@@H]1CN2CCc3c([nH]c4cccc(OC)c34)[C@@H]2C[C@@H]1/C(=C\OC)C(=O)OC` [Mitragynine, methyl (E)-2-[(2S,3S,12bS)-3-ethyl-8-methoxy-1,2,3,4,6,7,12,12b-octahydroindolo[2,3-a]quinolizin-2-yl]-3-methoxyprop-2-enoate], for which the “Cross Reactivity (%)” value was 100%.

In the case of `C=C[C@H]1CN2CCc3c([nH]c4cccc(OC)c34)[C@@H]2C[C@@H]1/C(=C\OC)C(=O)OC` [Paynantheine], the “Cross Reactivity (%)” value is at most 0.2%.

With `CC[C@@H]1CN2CCc3c([nH]c4cccc(OC)c34)[C@H]2C[C@@H]1/C(=C\OC)C(=O)OC` [Speciociliatine], the “Cross Reactivity (%)” value is listed as at most 0.2%.
